Measured values: PMC9623576, “Semisynthesis and Evaluation of Anti-Inflammatory Activity of the Cassane-Type Diterpenoid Taepeenin F and of Some Synthetic Intermediates” (Journal of Natural Products, 2022)
Where two headings read alike, the source gives them in different places.

What was measured:
[1] = test system: B16-F10 murine melanoma cells; test: MTT cancer cell proliferation assay, B16-F10; type: cell-based; details: B16-F10, 72 h
Procedure: (§1) The five newly synthesized diterpenoids were evaluated for their cytotoxic effects against three selected tumor cell lines, B16-F10 murine melanoma cells, HT29 human colon adenocarcinoma cells, and HepG2 human hepatocarcinoma cells at increasing concentrations (0–100 μg/mL). After 72 h of treatment, cell viability was determined by an MTT assay, where the tetrazolium dye was transformed into formazan in the mitochondria of viable cells, its absorbance measured at 570 nm and expressed as a percentage with respect to untreated control cells (S3 Figure.). The concentrations required for 20, 50, and for 80% growth inhibition (IC20, IC50, and IC80) were also determined for each compound (Table 2).
(§2) A stock solution was frozen and stored at […]. Before the experiments, this solution was diluted in cell-culture medium to the adequate concentrations for each experiment. […] For nitrite assay, subcytotoxic concentrations (3/4IC50, 1/2IC50, and 1/4IC50), were used to ensure that the NO inhibitory potential was not due to a possible cytotoxic effect. The concentrations of 3/4IC50, 1/2IC50, and 1/4IC50 were used for the cell-cycle analysis. All experiments were measured and compared with control (untreated cells after 24, 48, or 72 h of treatment.)
(§3) Human colorectal adenocarcinoma cell line HT29 (ECACC no. 9172201; ATCC no. HTB-38), human hepatocarcinome cell line HepG2 (ECACC no. 85011430), mouse melanoma cells B16-F10 (ATCC no. CRL-6475), and murine monocyte/macrophage-like RAW 264.7 cell line (ATCC no, TIB-71) were cultured in DMEM (Dulbecco’s modified Eagle’s medium) supplemented with 2 mM glutamine, 10% heat-inactivated FCS (fetal calf serum), 10 000 units/mL of penicillin and 10 mg/mL of streptomycin, (for all cancer cell lines), 50 μg/mL of gentamicin (only for RAW 264.7 cell line), and incubated at 37 °C, in an atmosphere of 5% CO2 and 95% humidity. The culture media were changed every 48 h, and the confluent cultures were separated with a trypsin solution (0.25% EDTA). In all experiments, monolayer cells were grown to 80–90% confluence, in sterile cell culture flasks. All cell lines used were purchased from the cell bank of the University of Granada, Spain.
(§4) The cytotoxicity assay was performed by the MTT (3-(4,5-dimethylthiazol-2-yl)-2,5-diphenyltetrazolium bromide) method.[21] To quantify the cytotoxicity of compounds, the fresh and suspended cells were seeded in 96-well plates to a volume of 100 μL at 6.0 × 10^3 cells/mL for HT29 and RAW 264.7 cell lines, at 5.0 × 10^3 cells/mL for B16-F10 cells and 15.0 × 10^3 for Hep G2. Then, cells were incubated to adhere over 24 h at 37 °C with 5% CO2. All tested compounds were prepared in fresh growth medium. After 24 h, an additional 100 μL of medium with the corresponding concentrations of products (only medium in the control wells) was added to the corresponding wells, at various final concentrations (0–100 μg/mL). Finally, after 72 h of incubation at 37 °C with 5% CO2, the medium with the compounds were removed and 100 μL of MTT solution (0.5 mg/mL) in 50% of PBS 50% of medium was added to each well. After 1.5 h of incubation, formazan was resuspended in 100 μL of DMSO, and each concentration was tested in triplicate. Relative cell viability, with respect to untreated control cells, was measured by absorbance at 570 nm on an ELISA plate reader (Tecan Sunrise MR20-301, TECAN, Austria).
(§5) Cytotoxicity experimental data were fitted to a sigmoidal function (y = ymax/(x/a)^−b) by nonlinear regression. […] These analyses were performed using SigmaPlot 12.5 software. Similar analyses were performed to obtain the IC50 of NO production. All data shown here are representative of at least two independent experiments performed in triplicate. All quantitative data were summarized as the mean ± standard deviation (SD).

[2] = test system: NO production in LPS-activated RAW 264.7 macrophage murine cells; test: Inhibition of NO (nitrite) release, Griess reaction; type: cell-based
Procedure: The concentrations of nitrites were determined by the Griess reaction.
as §2
Nitrites production was analyzed through the Griess reaction. This nitrite concentration was used as an indicator of NO production.[35] Briefly, RAW 264.7 cells were plated at 6 × 10^3 cells/well in 24-well cell culture plates and supplemented with 10 μg/mL of lipopolysaccharide (LPS). […] The supernatants were collected at 48 and 72 h, to determine their nitrite concentrations and/or stored at −80 °C for further use.
The Griess reaction was performed taking 150 μL of supernatant test samples or sodium nitrite standard (0–120 μM) and mixed with 25 μL of Griess reagent A (0.1% N,N-(1-naphthyl) ethylenediaminedihydrochloride) and 25 μL of Griess reagent B (1% sulfanilamide in 5% of phosphoric acid), in a 96-well plate. After 15 min of incubation at room temperature, the absorbance was measured at 540 nm in an ELISA plate reader (Tecan Sunrise MR20–301, TECAN, Austria). The absorbance was referred to a nitrite standard curve to determine the concentration of nitrite in the supernatant of each experimental sample. The percentage of NO production was determined, assigning 100% at the increase between negative control (untreated cells) and positive control (cells only treated with 10 μg/mL of LPS).

[3] = test system: HT29 human colon adenocarcinoma cells; test: MTT cancer cell proliferation assay, HT29; type: cell-based
Procedure: as §1, §2, §3, §4, §5

[4] = test system: RAW 264.7 monocyte/macrophage murine cells; test: MTT growth inhibition on RAW 264.7 cells; type: cell-based; details: Mus musculus, RAW264.7, RAW 264.7, MTT; for IC20: 20% growth inhibition; for IC80: 80% growth inhibition
Procedure: as §2
In all experiments, monolayer cells were grown to 80–90% confluence, in sterile cell culture flasks. All cell lines used were purchased from the cell bank of the University of Granada, Spain.
The cytotoxicity assay was performed by the MTT (3-(4,5-dimethylthiazol-2-yl)-2,5-diphenyltetrazolium bromide) method.[21] […] All tested compounds were prepared in fresh growth medium. After 24 h, an additional 100 μL of medium with the corresponding concentrations of products (only medium in the control wells) was added to the corresponding wells, at various final concentrations (0–100 μg/mL). […] After 1.5 h of incubation, formazan was resuspended in 100 μL of DMSO, and each concentration was tested in triplicate.
Cytotoxicity experimental data were fitted to a sigmoidal function (y = ymax/(x/a)^−b) by nonlinear regression. […] Similar analyses were performed to obtain the IC50 of NO production. All data shown here are representative of at least two independent experiments performed in triplicate. All quantitative data were summarized as the mean ± standard deviation (SD).

[5] = test system: HepG2 human hepatocarcinoma cells; test: MTT cancer cell proliferation assay, HepG2; type: cell-based; details: HepG2, 72 h
Procedure: as §1, §2, §3, §4, §5

HepG-2 cancer cell line = test system: HepG-2 cancer cell line; parameters: method as in PMID 23806110; details: HepG-2 cancer cell line ref 10; cited from earlier work
MCF-7 cancer cell line = test system: MCF-7 cancer cell line; parameters: method as in PMID 23806110; details: MCF-7 cancer cell line ref 10; cited from earlier work
NO release = details: read-out: IC50 of NO inhibitory effect; cited from earlier work
[6] = Mus musculus, MTT, read-out: IC50
[7] = Mus musculus, MTT, read-out: IC20
[8] = Homo sapiens, HT-29, HT29, 72 h, MTT
[9] = Homo sapiens, HT-29, HT29, 72 h, MTT, read-out: IC20
[10] = Homo sapiens, MTT, read-out: IC50
[11] = Homo sapiens, MTT, read-out: IC20

Molecule | IC50 ([1]; MTT, read-out: IC50) [µM] | IC50 [1, 6] [µM] | IC80 ([1]; Mus musculus, MTT) [µM] | IC20 [1, 7] [µM] | inhibition of NO release ([2]; 48 h, 1/2IC50 concentration) [%] | inhibition of NO release ([2]; 48 h, 3/4IC50 concentration) [%] | inhibition of NO release ([2]; 72 h, 3/4IC50 concentration) [%] | IC80 [3, 8] [µM] | IC20 [3, 9] [µM] | IC50 [4] [µM] | IC20 [4] [µM] | IC80 [4] [µM] | IC50 ([5]; MTT, read-out: IC50) [µM] | IC50 [5, 10] [µM] | IC80 ([5]; Homo sapiens, MTT) [µM] | IC20 [5, 11] [µM] | also measured
COC(=O)[C@]1(C)CCC[C@]2(C)c3cc(O)c(C(C)C)c(C)c3CC[C@@H]12 [Compound 17, (1R,4aS,10aR)-Methyl 6-hydroxy-7-isopropyl-1,4a,8-trimethyl-1,2,3,4,4a,9,10,10a-octahydrophenanthrene-1-carboxylate] | 133 ± 8.17 | > 85.6 | 259.3 ± 1.35 | 33.3 ± 5.94 | 86.5 | 89.70 | 99 | 311 ± 8.32 | 122 ± 24.2 | 129 ± 7.06 | 27.8 ± 8.38 | 247 ± 6.3 | 137 ± 13.9 | > 85.6 | 274 ± 41.2 | 32.6 ± 3.41 | –
caesalpin A [Compound 8] | – | – | – | – | – | – | – | – | – | – | – | – | – | – | – | – | IC50 (HepG-2 cancer cell line): 4.7 µM; IC50 (MCF-7 cancer cell line): 2100 nM
caesalmin A | – | – | – | – | – | – | – | – | – | – | – | – | – | – | – | – | IC50 (NO release): ~25.4 µM
COC(=O)[C@]1(C)CCC[C@]2(C)c3cc(O)c(CO)c(C)c3CC[C@@H]12 [Compound 22, (1R,4aS,10aR)-Methyl 6-hydroxy-7-(hydroxymethyl)-1,4a,8-trimethyl-1,2,3,4,4a,9,10,10a-octahydrophenanthrene-1-carboxylate] | 102 ± 4.36 | > 85.6 | 122 ± 4.22 | 85.5 ± 6.16 | 70.94 | 86.96 | 96 | 114 ± 7.35 | 67.5 ± 4.61 | 101.8 ± 0.52 | 92.1 ± 1.13 | 114.2 ± 0.17 | 125 ± 2.36 | > 85.6 | 141 ± 6.51 | 110.1 ± 0.84 | melting point: 98 to 101 °C; IC50 ([3]; HT29, 72 h, MTT, read-out: IC50): 85.6 ± 4.99 µM; IC50 ([3]; Homo sapiens, HT-29, 72 h, HT29, 72 h, MTT, read-out: IC50): > 85.6 µM
COC(=O)[C@]1(C)CCC[C@]2(C)c3cc4c(c(C)c3CC[C@@H]12)CC(=O)O4 [Compound 6, (4R,4aR,11bS)-Methyl 4,7,11b-trimethyl-9-oxo-1,2,3,4,4a,5,6,8,9,11b-decahydrophenanthro[3,2-b]furan-4-carboxylate] | – | – | – | – | 77.80 | 88.33 | 98 | – | – | – | 111 ± 24 | 254.7 ± 1.48 | – | – | – | – | IC50 ([1]; MTT): > 100 µM; IC50 ([1]; MTT, listed as Taepeenin F (6)): 257 ± 24 µM; IC20 ([1]; Mus musculus): 234 ± 4.12 µM; IC50 ([3]; HT29, 72 h, MTT): > 100 µM; IC50 ([3]; HT29, 72 h, MTT, listed as Taepeenin F (6)): 391 ± 39.5 µM; IC20 ([3]; Homo sapiens, HT-29, 72 h): 124.2 ± 1.11 µM; IC50 ([5]; MTT): > 100 µM; IC50 ([5]; MTT, listed as Taepeenin F (6)): 237 ± 9.69 µM; IC20 ([5]; Homo sapiens): 112 ± 22 µM
